Results on 87 compounds are retold here after a melting point compilation (Tetko et al.; mined from patent text by program, amines drawn as free bases though some values may be those of a salt).

The melting point is the temperature, or range, at which the solid turns liquid. As to `Cc1[nH]c(=O)ccc1-c1ccc(O)c([N+](=O)[O-])c1`, the melting point lay in the range of 260 to 262 °C.
Compound `CCOC(=O)C(c1ccncc1)C(c1ccccc1)c1ccc(OC)c(OC2CCCC2)c1` (configuration not stated) displayed a melting point of 165 to 166 °C.
Compound `CS(=O)(=O)c1cnc2c(c1)cc(-c1ncco1)n2Cc1ccc(F)cc1` came in with a melting point of 200 to 201 °C.
The compound `CCOC(=O)NC(C)C(=O)c1ccc2cc(OC)ccc2c1` (single isomer, unassigned; (+)) had a melting point of 96 to 97 °C.
Next, `Cc1cc(O)c2cccc(OCc3ccccc3)c2n1`: 155 to 164 °C.
The value for `COc1cc(-c2nc(N3CCNC(C)C3)c3c(C)c(C#N)sc3n2)cc(OC)c1OC` (configuration not stated) was 213 to 215 °C; that for `CC(C)[C@H](NC(=O)OC(C)(C)C)C(=O)C1CC(=O)NC1=O` (some centres not stated) was 123 to 124 °C; that for `COC(=O)/C=C/c1nc2ccc(Cl)cc2c(=O)o1` was 117 to 118 °C.
The value for `Cc1ccccc1NC(=O)Nc1ccc(CC(=O)O)cc1` was 205 to 206 °C.
`COc1ccc2c(c1)Oc1cccc([N+](=O)[O-])c1N2`: the melting point lay in the range of 197 to 199 °C.
For `O=C(O)Cc1ccc2c(c1)C(O)c1ccccc1CO2` (configuration not stated), the melting point was in the range of 132 to 134 °C.
In the case of `Cc1cc(C)cc(C(=O)c2c(-c3ccc(OCCCN(C)C)cc3)oc3ccccc23)c1`, the melting point was in the range of 103 to 106 °C.
The value for `Cc1nc2cccc3n(CCCCNS(=O)(=O)C(F)(F)F)c(=O)c1n23` was 195 to 196 °C; that for `CCc1oc2ccccc2c1C(=O)N(Cc1ccccc1)Cc1ccc2c(Br)c(OCC#N)ccc2c1` was 92 to 100 °C.
`COc1ccc2ccc(NC(=O)c3cccs3)nc2n1` had a melting point of 220 °C.
As to `COC1(OC)C(=O)NC(Nc2ncnc3c2ncn3C2OC(CO)C(O)C2O)C1Cl` (configuration not stated), the melting point lay in the range of 110 to 120 °C.
Compound `CCOC(=O)C1=NNC(C)=C(C(=O)OCC)C1c1cccc([N+](=O)[O-])c1` (configuration not stated) had a melting point of 117 °C.
Next, `CCC(C)(C)c1ccc(OCCCCNC(=O)CS(=O)(=O)c2ccc([N+](=O)[O-])cc2)c(C(C)(C)CC)c1`: 36 to 37 °C.
The value for `COc1ccc(S(=O)(=O)c2cccs2)c(Cl)c1Cl` was 190 °C.
Next, `Cc1cccc2nc(CSc3ncnc4[nH]cnc34)n(-c3ccccc3Cl)c(=O)c12`: 228 to 230 °C; `CCOC(=O)/C=C(C)/C=C/C=C(C)/C=C/c1c(C)oc(C)c1C`: 89 to 91 °C.
Consider `CCNC(=O)Nc1ccc(N(C)C)cc1C(=O)NCC1CCN(C(c2ccccc2)c2ccccc2)CC1`, for which the melting point was in the range of 186 to 188 °C.
`CN1CCC(=C2c3ccc(Cl)cc3CC(=O)c3sccc32)CC1` registered a melting point of 150 to 151 °C.
For `c1ccc2c(c1)Oc1ccccc1C2NCCn1ccnc1`, the melting point lay in the range of 90 to 92 °C.
The compound `O=C(O)CCc1c(C(=O)O)[nH]c2cc(Br)ccc12` registered a melting point of 234 to 235 °C.
Next, `CCN(c1nc(C)cc(-c2ccccc2C(=O)O)n1)c1ccc(C(C)C)cc1Br`: 209 to 210 °C; `COc1ccc2c(c1)C(NCc1cc(OC)c(OC)cc1N)CCO2` (configuration not stated): 90 to 92 °C; `C[Si](C)(CCSCCCNC(=O)n1cc(F)c(=O)[nH]c1=O)c1ccccc1`: 93.5 to 94 °C.
Compound `CC1CCN(C(=O)NCCc2ccc(S(=O)(=O)NC(=O)NC3CCCCC3)cc2)C(=O)C1` (configuration not stated) showed a melting point of 176 to 178 °C.
In turn, `Clc1ccc2nc3c4ccccc4c4ccccc4c3nc2c1` yielded a melting point of 241 to 242 °C.
`COc1cccc(Cl)c1CBr` came in with a melting point of 44 to 47 °C.
The value for `Cc1cc(C)c2c(c1O)C(=O)C(C)(C)C2` was 28 to 30 °C; that for `COC(=O)CCc1ccc2c(c1)nc(N)c1ncn(CC(C)(C)O)c12` was 201 to 205 °C; that for `CCCCC(CC)n1c(CC)nc2c(-c3c(C)cc(C)cc3C)ncnc21` (configuration not stated) was 99 to 100 °C.
In turn, `Fc1ccc(C=Nn2cncn2)cc1` registered a melting point of 118 to 120 °C.
In the case of `Cn1c2ccc(Cl)cc2c2c(CO)nn(-c3ccccc3)c(=O)c21`, the melting point was 278 to 280 °C.
Turning to `Cc1cc(-c2cscn2)ccc1-c1cc(C(F)(F)F)nn1-c1ccc(S(C)(=O)=O)cc1`, the melting point turned out to be 175 °C.
In turn, `CC(=O)SCC(Cc1ccccc1)C(=O)Nc1ccc(N(C)C)c(C(=O)O)c1` (configuration not stated) came in with a melting point of 168 to 169 °C.
The value for `c1ccc(CN2CCC(n3nnc4ccccc43)CC2)cc1` was 110 to 111 °C; that for `O=C1c2c(Cl)cccc2-n2cnc(C#Cc3cccc(Cl)c3)c2[C@@H]2CCCN12` was 207 to 209 °C; that for `CN1CCC(CCCC2CCN(CC(=O)N3c4ccccc4C(=O)Nc4cccnc43)CC2)CC1` was 192 to 194 °C.
The value for `CCCCOc1cc(C(=O)O)cc([N+](=O)[O-])c1C(=O)c1ccc(C)cc1` was 162 to 163 °C.
For the compound `Cc1nc2c(N)cc(S(=O)(=O)N(C)C)cc2n1C`, the melting point was 255 to 258 °C.
Next, `O=C(O)CCCCCCC1C(=O)CC(=O)C1=O` (configuration not stated): 102 to 104 °C.
Next, `CC(=O)CCc1ccc2c(c1)Cc1ccccc1-2`: 99 to 101 °C; `CCOCc1nc2c(N)nc3ccc(OCc4ccccc4)cc3c2n1CC(C)(C)NS(C)(=O)=O`: 90 °C.
For the compound `OCCCOc1cccc2cccnc12`, the melting point lay in the range of 126 to 127 °C.
`CC(=O)NN1CCN(CCc2c[nH]c3ccccc23)CC1` came in with a melting point of 183 to 186 °C.
Next, `CCOC(=O)c1cnc2n(c1=O)CCCC2CC(=O)O` (configuration not stated): 156 to 157 °C; `CCOC(Cc1ccc(OCc2nc3ccc(OC)cc3n2C)cc1)C(=O)OC` (configuration not stated): 88 to 92 °C.
The compound `CS(=O)(=O)Nn1c(=O)[nH]c2cc(C(F)(F)F)c(-c3ccc(C#N)cc3)cc2c1=O` registered a melting point of 145 to 147 °C.
In the case of `CCOC(=O)c1ccccc1OCNC(=O)CCCCCNC(=O)OC(C)(C)C`, the melting point is 120 to 121 °C.
`Cn1cnnc1C(CCl)(c1ccc(Cl)cc1)c1ccc2c(c1)c(-c1cccc(Cl)c1)cc(=O)n2C` (configuration not stated) gave a melting point of 260 °C.
Take `C#Cc1ncn2c(C(F)(F)F)cc(-c3ccc(C(F)(F)F)cc3)nc12`: the melting point stood at 163 °C.
Next, `CCN1CCNS(=O)(=O)c2cc(Oc3ccccc3)ccc21`: 138 °C; `Nc1ccc(C(=O)OCCCN2CCOCC2)c(N)c1`: 96 °C; `CS(=O)(=O)N[C@@H](CCCCN)C(=O)NC[C@H](CC1(C(=O)N[C@@H](Cc2ccc(O)cc2)C(=O)O)CCCC1)C(=O)O`: 237 to 238 °C.
In the case of `Cc1ccc(-c2nc3cccnc3n2CC(=O)O)s1`, the melting point is greater than 250 °C.
With `C=CC[C@H]1C(=O)N[C@H]2CCN(C(=O)OCc3ccccc3)[C@@H]21` (relative stereo), the melting point came to 160 °C.
Compound `COc1cccc(-c2cc(=O)c3c(OC)cc(OC)c(C4=CCN(C)CC4)c3o2)c1OC` gave a melting point of 195 to 196 °C.
Next, `Cc1nc2ccc(CN(CCO)c3ccc(C(=O)NCc4cccc([N+](=O)[O-])c4)cc3)cc2c(=O)[nH]1`: 230 to 232 °C; `CCOC(=O)C(=O)c1c(C(=O)OCC)n(C)c2cc(Cl)ccc12`: 94 to 95 °C.
Next, `Cc1cc2c(-c3ccccc3Cl)c(NC(=O)Nc3cccc(Cl)c3)c(=O)n(C)c2cc1C`: 208 to 210 °C.
The value for `CS(=O)(=O)CCN1C(=O)CN=C(c2ccccc2F)c2cc(Cl)ccc21` was 155 to 156 °C; that for `COc1cccc(/C=C/C(=O)Nc2cccc(NC(=N)c3ccccc3)c2)c1` was 148 to 149 °C.
On to `COc1cccc(N2CCN(c3c(C)c(C)c4c(c3C)C(N3CCCC3)C(C)(C)O4)CC2)c1` (configuration not stated), for which the melting point lay within 106 to 107 °C.
Consider `COC(=O)c1c(-c2ccc(C)cc2)ccnc1O`, for which the melting point is 222 to 224 °C.
The value for `CCOC(=O)C1=C(C)N(C)C(C)=C(C(=O)OCC)C1c1ccc(OC(C)(C)C(=O)OCC)cc1` was 88 °C; that for `CCCC(=O)c1cc2c(s1)CCC1CC(=O)N(c3ccc(Cl)cc3)N=C21` (configuration not stated) was 157 to 159 °C.
Compound `CC(O)c1cc(S(N)(=O)=O)ccc1F` (configuration not stated) gave a melting point of 150 to 152 °C.
The compound `N=c1cc(N)nc2n1CCS2` had a melting point of 146 to 148 °C.
Compound `Nc1nc(Nc2cccnc2)nn1-c1ccccn1` yielded a melting point of 256 °C.
The value for `O=S(=O)(NCCCCOc1ccc(-n2ccnc2)cc1)c1ccc(Br)cc1` was 134 to 136 °C; that for `CCOC(=O)c1cc(OC)ccc1Nc1ccc(O)cc1` was 134 to 136 °C; that for `Nc1cc(C2COCCO2)ccn1` (configuration not stated) was 123 to 126 °C.
As to `Cc1cc(N2CCC(CN3CCN(S(=O)(=O)c4ccc(Br)cc4)CC3)CC2)nc(C)n1`, the melting point lay in the range of 73 to 74 °C.
Turning to `O=C1c2ccccc2C(=O)N1CCN1c2ccccc2N(Cc2ccccc2)C(=O)[C@H]2CCC[C@H]21` (relative stereo), the melting point lay in the range of 142 to 143 °C.
The value for `Cc1onc(-c2ccccc2)c1-c1ccc(S(=O)(=O)NC(=O)CC(C)(C)S)cc1` was 138 to 140 °C.
Next, `CN1CCN(c2nc3sc4c(NCc5cccnc5)ncnc4c3c3c2CCC(C)(C)C3)CC1`: 210 to 212 °C; `Cc1ccc(S(=O)(=O)N[C@@H](C)C(=O)N[C@@H](Cc2ccccc2)C(=O)O)cc1`: 105 to 108 °C.
Compound `C[C@@H]1C(=O)C[C@H]2C[C@@H]1OO[C@@]2(C)/C=C\c1ccc(Cl)cc1` returned a melting point of 90 °C.
The value for `CCCCCCCCCCCCCCCCCCOCC(O)Cn1ccc(N)nc1=O` (configuration not stated) was 153 to 154 °C; that for `CCC(c1ccccc1)c1c(O)c2c(oc1=O)CCCCCC2` (configuration not stated) was 201 to 202 °C.
Next, `N#Cc1c(F)ccc(OCc2nc3cc(Cl)ccc3s2)c1F`: 145 to 147 °C.
`O=C(Cn1nnc2cccnc21)Nc1ccc(-n2nc(C(F)(F)F)cc2C2CC2)cc1` yielded a melting point of 206 to 209 °C.
The value for `CCNC(=O)Nc1ccc(-c2sc3c(c2CN(C)CCC(=O)NCCOC)c(=O)n(-c2ccccc2)c(=O)n3Cc2c(F)cccc2F)cc1` was 240 to 244 °C.
Next, `N=C(O[C@@H]1CCCC=C1Cl)C(Cl)(Cl)Cl`: 78 to 79 °C.
